Measurements from paper PMC10537604, “Development and Assessment of 1,5–Diarylpyrazole/Oxime Hybrids Targeting EGFR and JNK–2 as Antiproliferative Agents: A Comprehensive Study through Synthesis, Molecular Docking, and Evaluation” (Molecules, 2023).
Where two headings read alike, the source gives them in different places.

Assays:
[1] = system: human hepatocellular carcinoma cell line HepG2; experiment: WST-8 antiproliferative assay, HepG2; assay type: cell-based
Method: (§1) Compounds 7a–j, 8a–j, 9a–c, and 10a–c were evaluated for in vitro anticancer activities against five different cancer cell lines, namely, human colorectal adenocarcinoma cell lines DLD-1, human cervical cancer cell line Hela, human pancreatic cancer cell line SUIT-2, human myelogenous leukemia cell line K562, and human hepatocellular carcinoma cell line HepG2 using WST-8 assay at concentrations of 100 µM to investigate the growth inhibition percent (GI%) of each compound using daunorubicin as a reference drug. […]. […] So, as a conclusion on the SAR study of those compounds as antiproliferative agents, the oxime moiety potentiated the anticancer activity and electron donating groups on R1 and R2 played an important role on this activity. Moreover, the sulfamoyl moiety on R3 seems to play a potential role in the activity of the prepared compounds (Table 1).
(§2) All selected compounds and daunorubicin were recorded as the minimum concentration required to inhibit half cell growth (IC50) and the results are listed in Table 2.
(§3) Evaluation of anticancer activity was performed according to the standard water-soluble tetrazolium-8 (WST-8) assay at the Faculty of Engineering, Yamagata University, Yonezawa, Japan, using an MTP-310 absorbance microplate reader. The EGFR inhibitory assay was carried out at the Faculty of Engineering, Yamagata University, Yonezawa, Japan, according to the protocol enzyme linked immunosorbent assay (ELISA) kits (Douset sandwich ELISA test, recombinant mouse EGFR). The JNK-2 inhibitory assay was performed at the Faculty of Engineering, Yamagata University, Yonezawa, Japan, according to the protocol of enzyme-linked immunosorbent assay (ELISA), the assay was carried out using the JNK-2 kit (Simple Step ELISA, pT183/Y185, Abcam Company, Cambridge, CB2 0AX, UK). Apoptosis and cell cycle analysis was performed at Faculty of medicine, Yamagata University, Yamagata, Japan, using BD FACS melody. Molecular docking was performed at the Nano Medical Engineering Laboratory, RIKEN Cluster for Pioneering Researchers, RIEKN, Japan, using ICM-Pro 3.8 software (MolSoft L.L.C., San Diego, CA, USA).
(§4) According to the standard water-soluble tetrazolium-8 (WST-8) assay, the current synthesized compounds have been tested for their anticancer activities against different five cancer cell lines; DLD-1, Hela, K562, SUIT-2, and HepG2 and daunorubicin was used as reference drug by the WST-8 assay. The five cells were maintained in a suspension culture, (Dulbecco’s modified eagle medium (DMEM) for SUIT-2, Hela, and HepG2 or PRIM for K562 and DLD), supplemented with 5% FBS (Fetal Bovine Serum) containing 1% of a penicillin-streptomycin (1:1) mixture. A 100 μL aliquot of cells (10,000 cells/mL) was added to a 96 well plate and incubated for 24 h at 37 °C in a humidified incubator containing 5% CO2 in the air. After 24 h, a 10 μL aliquot of test compound (concentrations varying in the range of 10–150 µM) was added to each of the 96 wells and incubated for 24 h. Then A 10 μL WST-8 solution (mixture of WST-8 and 1-methoxy PMS) was added to each well and the incubation continued for 3 h. The visible absorbance at 450 nm and 630 nm as the reference wavelength of each well was quantified using an MTP-310 absorbance microplate reader. Daunorubicin was used as a positive control. The results of cytotoxicity were recorded as growth inhibition percentages and as IC50 values.

[2] = system: human colorectal adenocarcinoma cell line DLD-1; experiment: WST-8 antiproliferative assay, DLD-1; assay type: cell-based
Method: as §1, §2, §3, §4

[3] = system: human pancreatic cancer cell line SUIT-2; experiment: WST-8 antiproliferative assay, SUIT-2; assay type: cell-based
Method: as §1, §2, §3, §4

[4] = system: human pancreatic cancer cell line SUIT-2; experiment: WST-8 antiproliferative assay, SUIT-2; assay type: cell-based; conditions: WST-8 assay, six concentrations 1-100 µM
[5] = system: human cervical cancer cell line Hela; experiment: WST-8 antiproliferative assay, Hela; assay type: cell-based; conditions: for inhibition at 100 µM: read-out: Growth Inhibition (GI%) Hela; for IC50: read-out: IC50 Hela
Method: as §1, §2, §3
as §4, with “After 24 h, a 10 μL aliquot of test compound (concentrations varying in the range of 10–150 µM) was added to each of the 96 wells and incubated for 24 h.” left out

[6] = system: Hela cell line; experiment: Cell cycle analysis, PI staining, flow cytometry; assay type: cell-based, human
Method: This analysis was applied to investigate the effects of tested compounds on cell cycle distribution and on cell-death associated DNA fragmentation. The Hela cell line was analyzed flow cytometrically after propidium iodide (PI) staining, following the treatment of compounds 8g and 8i.
The supernatant was transferred to falcon tube for each plate and each well was washed twice with 3 mL PBS, Trypsin 1 mL was added, and plates were incubated for 3 to 5 min at 37 degrees, then 3 mL of the medium was added to separate cells, cells were centrifuged for 5 min, and supernatant was decanted. Then, it was washed again with 3 mL PBS, and 10 mL of medium was added. Cells were immediately fixed in ice cold 70% ethanol overnight at −20 °C. On the day of the analysis, cells were washed ×3 with PBS and re-suspended in propidium iodide (PI) for 15 min at room temperature, protected from light. Cell-cycle analysis was performed using flowcytometric analysis (BD FACS melody) and data obtained from cell cycle distribution was analyzed using FSC-W (Watson model) to estimate the percentage of cells in G1, S, and G2.

[7] = target: T1, JNK-2 (Homo sapiens, UniProt P45984); experiment: JNK-2 inhibitory assay (SimpleStep ELISA, pT183/Y185); assay type: biochemical; conditions: read-out: IC50 (µM) against JNK-2
T1 construct: HEK293 only for the control lysate
T1 sequence (P45984 whole entry): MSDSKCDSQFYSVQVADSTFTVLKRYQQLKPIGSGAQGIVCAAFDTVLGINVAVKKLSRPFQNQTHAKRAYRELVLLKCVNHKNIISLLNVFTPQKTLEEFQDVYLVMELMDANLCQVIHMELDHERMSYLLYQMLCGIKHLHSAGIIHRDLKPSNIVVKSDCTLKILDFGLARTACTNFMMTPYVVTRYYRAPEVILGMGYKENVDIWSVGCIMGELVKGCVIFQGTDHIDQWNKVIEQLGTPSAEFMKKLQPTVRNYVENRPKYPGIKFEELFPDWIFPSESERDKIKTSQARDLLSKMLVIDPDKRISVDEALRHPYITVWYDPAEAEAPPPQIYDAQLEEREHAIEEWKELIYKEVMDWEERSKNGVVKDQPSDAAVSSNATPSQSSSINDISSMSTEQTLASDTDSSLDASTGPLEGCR
Method: The SimpleStep ELISA employs an affinity tag-labelled capture antibody and a reporter attached detector antibody to immunocapture the sample analyte in solution. This complete complex (capture antibody/analyte/detector antibody) is then immobilized via immunoaffinity of an anti-tag antibody coating the well. To perform the assay, samples or controls are added to the wells, followed by the antibody cocktail. After incubation, the wells are washed to remove unbound material. TMB substrate is added and during incubation is catalyzed by HRP, generating blue coloration. This reaction is then stopped by the addition of stop solution, completing any color change from blue to yellow. The signal is generated proportionally to the amount of bound analyte and the intensity is measured at 450 nm. Optionally, instead of the endpoint reading, the development of TMB can be recorded kinetically at 600 nm. An antibody cocktail can be prepared by combining an appropriate volume of the capture and detector antibodies immediately prior to assay. To make 3 mL of the antibody cocktail, combine 1.5 mL of capture antibody with 1.5 mL of detector antibody. Mix thoroughly and gently. Control lysate can be prepared from HEK293 cells, cultured in 10% FBS containing medium, then treated with 1 μg/mL anisomycin. After preparing all the reagents, samples, and control as instructed and following the previously published procedures [74, 75], add 50 µL of sample or control to the well, add 50 µL of the antibody cocktail, then incubate at room temperature for 1 h on a plate shaker set to 400 rpm, aspirate and wash each well three times with 350 μL with wash buffer, add 100 μL TMB substrate to each well and incubate for 15 min, then add 100 μL stop solution and measure the absorbance at 450 nm.

[8] = system: human hepatocellular carcinoma cell line HepG2; experiment: WST-8 antiproliferative assay, HepG2; assay type: cell-based; conditions: WST-8 assay, six concentrations 1-100 µM
[9] = system: human colorectal adenocarcinoma cell line DLD-1; experiment: WST-8 antiproliferative assay, DLD-1; assay type: cell-based; conditions: WST-8 assay, six concentrations 1-100 µM
[10] = HepG2, 100 µM, WST-8 assay, read-out: Growth Inhibition (GI%) HepG2
[11] = DLD-1, 100 µM, WST-8 assay, read-out: Growth Inhibition (GI%) DLD-1
[12] = SUIT-2, 100 µM, WST-8 assay, read-out: Growth Inhibition (GI%) SUIT-2
[13] = WST-8 assay, six concentrations 1-100 µM

Question: What does the source list for `COc1ccc(-c2cc(C(=O)Oc3ccc(/C(C)=N/O)cc3OC)nn2-c2ccc(S(N)(=O)=O)cc2)cc1` [Compound 8h, (E)–4–(1–(Hydroxyimino)ethyl)–2–methoxyphenyl 5–(4–methoxyphenyl)–1–(4–sulfamoyl phenyl)–1H–pyrazole–3–carboxylate]?
Answer: inhibition at 100 µM [1, 10]: 63%; inhibition at 100 µM [2, 11]: 52.3%; inhibition at 100 µM [3, 12]: 73%; IC50 [4]: 26 µM; inhibition at 100 µM ([5]; 100 µM, WST-8 assay): 7%; IC50 [5, 13]: 74 µM; melting point: 125 to 127 °C

Question: Which “cell cycle arrest phase” value ([6]; Hela, PI staining) does the source give for `COc1cc(/C(C)=N/O)ccc1OC(=O)c1cc(-c2ccc(Cl)cc2)n(-c2ccc(S(N)(=O)=O)cc2)n1` [Compound 8i, (E)–4–(1–(Hydroxyimino)ethyl)–2–methoxyphenyl 5–(4–chlorophenyl)–1–(4–sulfamoyl phenyl)–1H–pyrazole–3–carboxylate] here?
Answer: combined S phase and G2 phase arrest

Question: And the “percentage of Hela cells at G2 phase” value ([6]; IC50 concentration, 24 h)?
Answer: 18.2%

Question: And the “percentage of Hela cells at S phase” value ([6]; IC50 concentration, 24 h)?
Answer: 59.4%

Question: What about the inhibition at 100 µM [1, 10] of the same compound?
Answer: 90%

Question: What about the inhibition at 100 µM [2, 11] of the same compound?
Answer: 34%

Question: And the inhibition at 100 µM [3, 12]?
Answer: 98%

Question: And the IC50 [4]?
Answer: 62 µM

Question: What about the inhibition at 100 µM ([5]; 100 µM, WST-8 assay) of the same compound?
Answer: 100%

Question: And the IC50 [5, 13]?
Answer: 13 µM

Question: What about the IC50 [7] of the same compound?
Answer: 1 µM

Question: Which results are given for `COc1cc(/C(C)=N/O)ccc1OC(=O)c1cc(-c2ccccc2)n(-c2ccc(S(N)(=O)=O)cc2)n1` [Compound 8f, (E)–4–(1–(Hydroxyimino)ethyl)–2–methoxyphenyl 5–phenyl–1–(4–sulfamoyl phenyl)–1H–pyrazole–3–carboxylate]?
Answer: IC50 [8]: 22.3 µM; inhibition at 100 µM [1, 10]: 80%; inhibition at 100 µM [2, 11]: 72.9%; inhibition at 100 µM [3, 12]: 95%; inhibition at 100 µM ([5]; 100 µM, WST-8 assay): 107%; IC50 [5, 13]: 22 µM; melting point: 122 to 124 °C

Question: For `COc1cc(/C(C)=N/O)ccc1OC(=O)c1cc(-c2ccccc2)n(-c2ccccc2)n1` [Compound 8a, (E)–4–(1–(Hydroxyimino)ethyl)2–methoxyphenyl 1,5–diphenyl–1H–pyrazole–3–carboxylate], which inhibition at 100 µM [1, 10] is on record?
Answer: 0%

Question: And the inhibition at 100 µM [2, 11]?
Answer: 25.7%

Question: What about the inhibition at 100 µM [3, 12] of the same compound?
Answer: 77%

Question: And the inhibition at 100 µM ([5]; 100 µM, WST-8 assay)?
Answer: 33%

Question: What about the melting point of the same compound?
Answer: 167 to 170 °C

Question: Which IC50 [8] does the source give for `COc1cc(/C(C)=N/O)ccc1OC(=O)c1cc(-c2ccc(C)cc2)n(-c2ccccc2)n1` [Compound 8b, (E)–4–(1–(Hydroxyimino)ethyl)–2–methoxyphenyl 1–phenyl–5–p–tolyl–1H–pyrazole–3–carboxylate] here?
Answer: 35.7 µM

Question: What about the IC50 [9] of the same compound?
Answer: 10 µM

Question: What about the inhibition at 100 µM [1, 10] of the same compound?
Answer: 107%

Question: And the inhibition at 100 µM [2, 11]?
Answer: 92%

Question: And the inhibition at 100 µM [3, 12]?
Answer: 102%

Question: And the IC50 [4]?
Answer: 27 µM

Question: And the inhibition at 100 µM ([5]; 100 µM, WST-8 assay)?
Answer: 60%

Question: And the IC50 [5, 13]?
Answer: 32 µM

Question: What about the melting point of the same compound?
Answer: 123 to 125 °C

Question: With `C/C(=N\O)c1ccc(NC(=O)c2cc(-c3ccccc3)n(-c3ccc(S(N)(=O)=O)cc3)n2)cc1` [Compound 10a, (E)–N–(4–(1–(Hydroxyimino)ethyl)phenyl)–5–phenyl–1–(4–sulfamoylphenyl)–1H–pyrazole–3–carboxamide] as the compound, how does the IC50 [9] read?
Answer: 26 µM

Question: And the inhibition at 100 µM [1, 10]?
Answer: 72%

Question: What about the inhibition at 100 µM [2, 11] of the same compound?
Answer: 99%

Question: And the inhibition at 100 µM [3, 12]?
Answer: 88%

Question: What about the inhibition at 100 µM ([5]; 100 µM, WST-8 assay) of the same compound?
Answer: 0%

Question: Which IC50 [8] does the source give for `COc1ccc(-c2cc(C(=O)Oc3ccc(/C(C)=N/O)cc3OC)nn2-c2ccccc2)cc1OC` [Compound 8e, (E)–4–(1–(Hydroxyimino)ethyl)–2–methoxyphenyl 5–(3,4–dimethoxy phenyl)–1–phenyl–1H–pyrazole–3–carboxylate] here?
Answer: 4.7 µM

Question: And the inhibition at 100 µM [1, 10]?
Answer: 99%

Question: And the inhibition at 100 µM [2, 11]?
Answer: 29.2%

Question: And the inhibition at 100 µM [3, 12]?
Answer: 83%

Question: And the inhibition at 100 µM ([5]; 100 µM, WST-8 assay)?
Answer: 77%

Question: What about the IC50 [5, 13] of the same compound?
Answer: 22 µM

Question: What about the melting point of the same compound?
Answer: 115 to 118 °C

Question: Which IC50 [9] does the source give for `COc1ccc(-c2cc(C(=O)Nc3ccc(/C(C)=N/O)cc3)nn2-c2ccc(S(N)(=O)=O)cc2)cc1` [Compound 10b, (E)–N–(4–(1–(Hydroxyimino)ethyl)phenyl)–5–(4–methoxyphenyl)–1–(4–sulfamoylphenyl)–1H–pyrazole–3–carboxamide] here?
Answer: 36 µM

Question: What about the inhibition at 100 µM [1, 10] of the same compound?
Answer: 2%

Question: And the inhibition at 100 µM [2, 11]?
Answer: 72.5%

Question: What about the inhibition at 100 µM [3, 12] of the same compound?
Answer: 50%

Question: And the inhibition at 100 µM ([5]; 100 µM, WST-8 assay)?
Answer: 2%

Question: What about the melting point of the same compound?
Answer: 110 to 112 °C

Question: With `COc1ccc(-c2cc(C(=O)Nc3ccc(/C(C)=N/O)cc3)nn2-c2ccc(S(N)(=O)=O)cc2)cc1OC` [Compound 10c, (E)–5–(3,4–Dimethoxyphenyl)–N–(4–(1–(hydroxyimino)ethyl)phenyl)–1–(4–sulfamoyl phenyl)–1H–pyrazole–3–carboxamide] as the compound, how does the inhibition at 100 µM [1, 10] read?
Answer: 52%

Question: And the inhibition at 100 µM [2, 11]?
Answer: 92.4%

Question: What about the inhibition at 100 µM [3, 12] of the same compound?
Answer: 103%

Question: And the IC50 [4]?
Answer: 13 µM

Question: And the inhibition at 100 µM ([5]; 100 µM, WST-8 assay)?
Answer: 75%

Question: What about the IC50 [5, 13] of the same compound?
Answer: 5 µM

Question: With `COc1cc(/C(C)=N/O)ccc1OC(=O)c1cc(-c2ccc(Cl)cc2)n(-c2ccccc2)n1` [Compound 8d, (E)–4–(1–(Hydroxyimino)ethyl)–2–methoxyphenyl 5–(4–chlorophenyl)–1–phenyl–1H–pyrazole–3–carboxylate] as the compound, how does the inhibition at 100 µM ([1]; HepG2, read-out: Growth Inhibition (GI%) HepG2) read?
Answer: 98%

Question: And the IC50 ([1]; HepG2, read-out: IC50 HepG2)?
Answer: 23.3 µM

Question: And the inhibition at 100 µM ([2]; DLD-1, read-out: Growth Inhibition (GI%) DLD-1)?
Answer: 72%

Question: And the IC50 ([2]; DLD-1, read-out: IC50 DLD-1)?
Answer: 14.4 µM

Question: And the inhibition at 100 µM ([3]; SUIT-2, read-out: Growth Inhibition (GI%) SUIT-2)?
Answer: 77%

Question: And the inhibition at 100 µM [5]?
Answer: 48%

Question: What about the IC50 [5] of the same compound?
Answer: 57 µM

Question: What about the melting point of the same compound?
Answer: 106 to 109 °C

Question: And the IC50 [7]?
Answer: 49 µM
